# Reference: patent US11141496B2, “Use of berberine or derivative thereof in preparing myocardial perfusion imaging agent” (WEST CHINA HOSPITAL, SICHUAN UNIVERSITY, priority 2017, dated 2021)
# Columns and labels:
# [1] = tested on: rat cardiomyocytes H9C2; experiment: [^18F]HX-01 uptake in H9C2 cells, with and without CCCP (γ counter); type: cell-based
# Method: As described in method 1.4.4, the suspension of rat cardiomyocytes H9C2, NIH3T3 cells and SD neonatal rat primary cardiomyocytes was adjusted to the concentration of 20×10^4/ml, inoculated in a six-well plate, with 2 ml for each well (containing 4×10^5 cells), and the experimental group and CCCP inhibition group were included, The plate was cultured at 37° C. in 5% CO2 under saturated humidity for 24 h. After the cells adhered, 30 minutes before addition of [^18F]HX-01, the DMEM high-glucose medium in the Petri dish was aspirated and discarded. DMEM high-glucose medium containing CCCP (0.5 μM) was firstly added at 2 ml/well to the cell culture dish in CCCP inhibition group, while an equal volume of DMEM high-glucose medium without CCCP was added to the cell culture dish in the experimental groups, and the dish was incubated at 37° C. in 5% CO2 under saturated humidity for 30 min. Then, 100 μl solution of [^18F]HX-01 dissolved in saline was added to each well at a dose of 2.5 μCi. The plate was incubated at 37° C. in 5% CO2 under saturation humidity. […] After digestion with 0.25% trypsin, all cells were collected in the radioimmunotubes, and the radioactivity counts of the liquid and cells in the wells were measured with a γ counter, and the data were recorded. […]
# [2] = tested on: SD neonatal rat primary cardiomyocytes; experiment: [^18F]HX-01 uptake in SD neonatal rat primary cardiomyocytes, with and without CCCP (γ counter); type: cell-based
# Method: (§1) As described in method 1.4.4, the suspension of rat cardiomyocytes H9C2, NIH3T3 cells and SD neonatal rat primary cardiomyocytes was adjusted to the concentration of 20×10^4/ml, inoculated in a six-well plate, with 2 ml for each well (containing 4×10^5 cells), and the experimental group and CCCP inhibition group were included, The plate was cultured at 37° C. in 5% CO2 under saturated humidity for 24 h. After the cells adhered, 30 minutes before addition of [^18F]HX-01, the DMEM high-glucose medium in the Petri dish was aspirated and discarded. DMEM high-glucose medium containing CCCP (0.5 μM) was firstly added at 2 ml/well to the cell culture dish in CCCP inhibition group, while an equal volume of DMEM high-glucose medium without CCCP was added to the cell culture dish in the experimental groups, and the dish was incubated at 37° C. in 5% CO2 under saturated humidity for 30 min. Then, 100 μl solution of [^18F]HX-01 dissolved in saline was added to each well at a dose of 2.5 μCi. The plate was incubated at 37° C. in 5% CO2 under saturation humidity. After incubation for 5 min, 10 min, 30 min, 60 min and 120 min, the liquid in the well was collected, and rinsed 3 times with PBS, and all the rinse liquid was collected in the radioimmunotubes. After digestion with 0.25% trypsin, all cells were collected in the radioimmunotubes, and the radioactivity counts of the liquid and cells in the wells were measured with a γ counter, and the data were recorded. Three replicate holes were set for each time point.
# [3] = tested on: mouse fibroblasts NIH3T3; experiment: [^18F]HX-01 uptake in NIH3T3 cells, with and without CCCP (γ counter); type: cell-based
# Method: as §1
# [4] = Competitive inhibition test of [^18F]HX-01 and non-radioactive standard [^19F]HX-01 (PET); type: in vivo, New Zealand white rabbit; settings: [^19F]HX-01 1 nmol/kg i.v. 30 min before tracer
# Method: After anesthesia and fixation, the male New Zealand white rabbits were set as their own control (n=3). On the first day, 2 ml saline was injected into the ear marginal vein of the rabbits. Then, the tracer [^18F]HX-01 was injected, and the dosage was 0.5 mci/kg, and PET scanning was performed immediately as described in 1.4.2. On the second day, non-radioactive standard [^19F]HX-01 was injected through ear edge vein, and the dose of standard substance was 1 nmol/kg, that was dissolved in 2 ml normal saline. 30 min After injection of non-radioactive standard [^19F]HX-01, the tracer [^18F]HX-01 was injected, and the injection doe was 0.5 mCi/kg. After the injection, PET dynamic scanning was performed as described in 1.4.2. […] Using Compassview 5.0 to analyze and process the data, the brain, heart, liver, lung, kidney, bone and muscle of the region of interest (ROI) were drawn on the horizontal axis, and SUVmax was recorded.
# [5] = rabbit, in vivo
# [6] = SD rat myocardial infarction model, 350 μCi/rat, up to 120 min
# [7] = tested on: mitochondria of SD neonatal rat primary cardiomyocytes; experiment: [^19F]HX-01 localization with red mitochondrial probe M7513 in primary cardiomyocytes; type: cell-based; settings: 4 μM, 10 min, cardiomyocytes and surrounding mixed cells
# Method: The suspension of primary myocardial cells of SD suckling mice was adjusted to the concentration of 20×10^4/ml, inoculated in a six-well plate, with 2 ml for each well, and then incubated at 37° C. in 5% CO2 under saturated humidity for 24 h. After adherence, the DMEM high glucose medium in each well was aspirated and discarded, and DMEM high glucose medium containing different concentrations of [^19F]HX-01 (6.25, 12.5, 25, 50, 100, 150, and 200 μM) was firstly added, with 2 ml for each well, and each concentration has three replicate wells. After incubation at 37° C. in 5% CO2 under saturated humidity for 1 h, the liquid in each well was aspirated and removed. […] After the wells were washed three times with PBS, the cells were finally observed under a confocal fluorescence microscope with an excitation wavelength of 488 nm.
# In order to further clarify the localization characteristics of [^19F]HX-01 in the subcellular organelles of SD rat primary cardiomyocytes, after addition of above different concentrations of [^19F]HX-01 and incubation for 1 h, the medium was discarded, and each well was rinsed with PBS three times. Each well was added the medium containing mitochondrial specific probe with red fluorescence (Mito Tracker Red (M7513), Thermo fisher) and incubated for another 10 min, the medium was removed, and each well was rinsed with PBS three times. […]
Compound,"uptake percentage (peak value) ([1]; 120 min, 2.5 μCi per well)","uptake percentage, control group vs CCCP inhibition group ([1]; CCCP 0.5 μM 30 min before tracer)",uptake percentage ([2]; 30 min),uptake percentage (peak value) ([2]; 120 min),"intake percentage, normal group vs CCCP inhibition group ([2]; CCCP 0.5 μM, p>0.05)",uptake percentage ([3]; 5 min),uptake percentage ([3]; 120 min),"uptake, normal group vs CCCP inhibition group ([3]; CCCP 0.5 μM, p>0.05)","kidney uptake (SUVmax), inhibition group vs control group [4]","liver uptake (SUVmax), inhibition group vs control group [4]","myocardial uptake (SUVmax), inhibition group vs control group ([4]; P<0.001)","lung, bone, muscle and brain uptake (SUVmax), inhibition group vs control group ([4]; P>0.05)",SUVmax ratio of heart/lung [5],SUVmax ratio of heart/muscle [5],"uptake in other tissues such as brain, lung, muscle and bone [5]",Micro PET image of anterior wall of left ventricle near apical area (infarction) [6],distribution of red fluorescence of the probe [7]
COc1c(OCCC[18F])ccc2cc3[n+](cc12)CCc1cc2c(cc1-3)OCO2.[Cl-] [[^18F]HX-01],2.89%±0.11%,didn't show significant difference in the uptake percentage,2.08%±0.13%,2.41%±0.03%,no significant difference in the intake percentage,0.78±0.06,0.91±0.01,did not show a significant difference,no statistical significance between the two groups,no statistical significance between the inhibition group and the control group,SUVmax value was obviously reduced,not statistically significant,greater than 10,greater than 10,extremely low,showed a fixed radioactive defect,–
ClCc1ccc(C2=c3cc4c5c(c3Oc3c2cc2c6c3CCCN6CCC2)CCC[N+]=5CCC4)cc1.[Cl-] [M7513],–,–,–,–,–,–,–,–,–,–,–,–,–,–,–,–,appeared in the mitochondria of all cells in a granular distribution
